Results reported in ChEMBL document CHEMBL4340507, “Identification of an indol-based multi-target kinase inhibitor through phenotype screening and target fishing using inverse virtual screening approach” (Eur J Med Chem, 2019).
Active and inactive are the calls of the source. The calls are words filed in the database; no cut-off is given here.

What was measured:
[1] = biological target: Dual specificity protein kinase CLK1 (Homo sapiens, UniProt P49759); assay: Inhibition of recombinant human full-length N-terminal GST-His6-fused CLK1 (M1 to I484 residues) expressed in Sf9 cells using RS-peptide as substrate measured after 60 mins in presence of [gamma-33P]-ATP by scintillation counting method
[2] = Inhibition of ERK phosphorylation in rat IEC-6 cells at 0.1 to 0.6 uM after 24 hrs by FACS analysis; assay type: cell-based; details: iec-6, 24 h
[3] = biological target: Mitogen-activated protein kinase 7 (Homo sapiens, UniProt Q13164); assay: Inhibition of recombinant human N-terminal FLAG-tagged/C-terminal His8 fused ERK5 internal fragment domain (L5 to Q397 residues) expressed in Sf9 insect ells using RBER-CHKtide as substrate measured after 60 mins in presence of [gamma-33P]-ATP by scintillation counting method
[4] = biological target: Platelet-derived growth factor receptor beta (Homo sapiens, UniProt P09619); assay: Inhibition of recombinant human N-terminal GST-His6-fused PDGFR-beta C-terminal domain (R561 to L1106 residues) expressed in Sf9 insect cells using Poly(Ala,Glu,Lys,Tyr)6:2:5:1 as substrate measured after 60 mins in presence of [gamma-33P]-ATP by scintillation counting method
[5] = biological target: Vascular endothelial growth factor receptor 2 (Homo sapiens, UniProt P35968); assay: Inhibition of recombinant human N-terminal GST-fused VEGFR2 C-terminal domain (D807 to V1356 residues) expressed in Sf9 insect cells using Poly(Glu:Tyr)4:1 as substrate measured after 60 mins in presence of [gamma-33P]-ATP by scintillation counting method
[6] = biological target: Fibroblast growth factor receptor 3 (Homo sapiens, UniProt P22607); assay: Inhibition of recombinant human wild-type N-terminal GST-His6-fused FGFR3 C-terminal domain (R397 to T806 residues) expressed in Sf9 insect cells using TRK-C derived peptide as substrate measured after 60 mins in presence of [gamma-33P]-ATP by scintillation counting method
IEC-6 [7] = assay: Cell cycle arrest in rat IEC-6 cells assessed as increase in accumulation at S phase at 0.1 to 0.6 uM after 24 hrs by propidium iodide staining based FACS analysis; assay type: ADME; details: iec-6, 24 h
[8] = biological target: Platelet-derived growth factor receptor alpha (Homo sapiens, UniProt P16234); assay: Inhibition of recombinant human wild-type N-terminal GST-His6-fused PDGFR-alpha C-terminal domain (Q551 to L1089 residues) expressed in Sf9 insect cells using TRK-C derived peptide as substrate measured after 60 mins in presence of [gamma-33P]-ATP by scintillation counting method
[9] = biological target: Hepatocyte growth factor receptor (Homo sapiens, UniProt P08581); assay: Inhibition of recombinant human wild-type N-terminal GST-His6-fused MET C-terminal domain (K956 to S1390 residues) expressed in Sf9 insect cells using TRK-C derived peptide as substrate measured after 60 mins in presence of [gamma-33P]-ATP by scintillation counting method
[10] = biological target: Mitogen-activated protein kinase kinase kinase 10 (Homo sapiens, UniProt Q02779); assay: Inhibition of recombinant human MAP3K10 measured after 60 mins in presence of [gamma-33P]-ATP by scintillation counting method
IEC-6 [11] = assay: Cell cycle arrest in rat IEC-6 cells assessed as accumulation at G0/G1-phase at 0.1 to 0.6 uM after 24 hrs by propidium iodide staining-based FACS analysis; assay type: ADME; details: iec-6, 24 h
[12] = biological target: Fibroblast growth factor receptor 1 (Homo sapiens, UniProt P11362); assay: Inhibition of recombinant human wild-type N-terminal GST-His6-fused FGFR1 C-terminal domain (G400 to R820 residues) expressed in Sf9 insect cells using Poly(Glu:Tyr)4:1 as substrate measured after 60 mins in presence of [gamma-33P]-ATP by scintillation counting method
IEC-6 [13] = assay: Induction of apoptosis in rat IEC-6 cells assessed as increase in hypodiploid nuclei at 0.1 to 0.6 uM measured after 24 hrs by propidium iodide staining-based FACS analysis; assay type: cell-based; details: iec-6, 24 h
[14] = biological target: Serine/threonine-protein kinase Chk2 (Homo sapiens, UniProt O96017); assay: Inhibition of recombinant human CHK2 measured after 60 mins in presence of [gamma-33P]-ATP by scintillation counting method
[15] = biological target: Receptor tyrosine-protein kinase erbB-2 (Homo sapiens, UniProt P04626); assay: Inhibition of recombinant human wild-type N-terminal GST-His6-fused ERBB2 C-terminal domain (Q679 to V1255 residues) expressed in Sf9 insect cells using Poly(Glu:Tyr)4:1 as substrate measured after 60 mins in presence of [gamma-33P]-ATP by scintillation counting method
[16] = biological target: Casein kinase II subunit alpha (Homo sapiens, UniProt P68400); assay: Inhibition of recombinant human full-length N-terminal GST-fused CK2-alpha1 (M1 to Q391 residues) expressed in Sf9 insect cells using casein as substrate measured after 60 mins in presence of [gamma-33P]-ATP by scintillation counting method
[17] = biological target: Mitogen-activated protein kinase 1 (Homo sapiens, UniProt P28482); assay: Inhibition of recombinant human full-length untagged ERK2 (M1 to S360 residues) expressed in Escherichia coli using recombinant ELK1 as substrate measured after 60 mins in presence of [gamma-33P]-ATP by scintillation counting method
HeLa [18] = assay: Cell cycle arrest in human HeLa cells assessed as accumulation at G0/G1-phase at 0.1 to 0.6 uM after 24 hrs by propidium iodide staining-based FACS analysis; assay type: functional
HeLa [19] = assay: Cell cycle arrest in human HeLa cells assessed as decrease in accumulation at G2-phase at 0.1 to 0.6 uM after 24 hrs by propidium iodide staining-based FACS analysis; assay type: functional
IEC-6 [20] = assay: Cell cycle arrest in rat IEC-6 cells assessed as decrease in accumulation at G2-phase at 0.1 to 0.6 uM after 24 hrs by propidium iodide staining-based FACS analysis; assay type: ADME; details: iec-6, 24 h
[21] = biological target: RAC-beta serine/threonine-protein kinase (Homo sapiens, UniProt P31751); assay: Inhibition of recombinant human N-terminal GST-His6-fused AKT2 C-terminal domain (A107 to E481 residues) expressed in Sf9 insect cells using GSK3(14-27)tide as substrate measured after 60 mins in presence of [gamma-33P]-ATP by scintillation counting method
[22] = biological target: High affinity nerve growth factor receptor (Homo sapiens, UniProt P04629); assay: Inhibition of recombinant human wild-type N-terminal GST-His6-fused TRKA C-terminal domain (G443 to G796 residues) expressed in Sf9 insect cells using TRK-C derived peptide as substrate measured after 60 mins in presence of [gamma-33P]-ATP by scintillation counting method
SRSF protein kinase 1 = SRSF protein kinase 1 (Homo sapiens, UniProt Q96SB4); assay: Inhibition of recombinant human full-length N-terminal GST-His6-fused SRPK1 (M1 to S655 residues) expressed in Sf9 insect cells using RS-peptide as substrate measured after 60 mins in presence of [gamma-33P]-ATP by scintillation counting method
IEC-6 [23] = assay: Down regulation of ERK expression in rat IEC-6 cells at 0.1 to 0.6 uM after 24 hrs by FACS analysis; assay type: ADME, cell-based; details: iec-6, 24 h

Vascular endothelial growth factor receptor 2, sequence (P35968 whole entry, the tested form may be a part): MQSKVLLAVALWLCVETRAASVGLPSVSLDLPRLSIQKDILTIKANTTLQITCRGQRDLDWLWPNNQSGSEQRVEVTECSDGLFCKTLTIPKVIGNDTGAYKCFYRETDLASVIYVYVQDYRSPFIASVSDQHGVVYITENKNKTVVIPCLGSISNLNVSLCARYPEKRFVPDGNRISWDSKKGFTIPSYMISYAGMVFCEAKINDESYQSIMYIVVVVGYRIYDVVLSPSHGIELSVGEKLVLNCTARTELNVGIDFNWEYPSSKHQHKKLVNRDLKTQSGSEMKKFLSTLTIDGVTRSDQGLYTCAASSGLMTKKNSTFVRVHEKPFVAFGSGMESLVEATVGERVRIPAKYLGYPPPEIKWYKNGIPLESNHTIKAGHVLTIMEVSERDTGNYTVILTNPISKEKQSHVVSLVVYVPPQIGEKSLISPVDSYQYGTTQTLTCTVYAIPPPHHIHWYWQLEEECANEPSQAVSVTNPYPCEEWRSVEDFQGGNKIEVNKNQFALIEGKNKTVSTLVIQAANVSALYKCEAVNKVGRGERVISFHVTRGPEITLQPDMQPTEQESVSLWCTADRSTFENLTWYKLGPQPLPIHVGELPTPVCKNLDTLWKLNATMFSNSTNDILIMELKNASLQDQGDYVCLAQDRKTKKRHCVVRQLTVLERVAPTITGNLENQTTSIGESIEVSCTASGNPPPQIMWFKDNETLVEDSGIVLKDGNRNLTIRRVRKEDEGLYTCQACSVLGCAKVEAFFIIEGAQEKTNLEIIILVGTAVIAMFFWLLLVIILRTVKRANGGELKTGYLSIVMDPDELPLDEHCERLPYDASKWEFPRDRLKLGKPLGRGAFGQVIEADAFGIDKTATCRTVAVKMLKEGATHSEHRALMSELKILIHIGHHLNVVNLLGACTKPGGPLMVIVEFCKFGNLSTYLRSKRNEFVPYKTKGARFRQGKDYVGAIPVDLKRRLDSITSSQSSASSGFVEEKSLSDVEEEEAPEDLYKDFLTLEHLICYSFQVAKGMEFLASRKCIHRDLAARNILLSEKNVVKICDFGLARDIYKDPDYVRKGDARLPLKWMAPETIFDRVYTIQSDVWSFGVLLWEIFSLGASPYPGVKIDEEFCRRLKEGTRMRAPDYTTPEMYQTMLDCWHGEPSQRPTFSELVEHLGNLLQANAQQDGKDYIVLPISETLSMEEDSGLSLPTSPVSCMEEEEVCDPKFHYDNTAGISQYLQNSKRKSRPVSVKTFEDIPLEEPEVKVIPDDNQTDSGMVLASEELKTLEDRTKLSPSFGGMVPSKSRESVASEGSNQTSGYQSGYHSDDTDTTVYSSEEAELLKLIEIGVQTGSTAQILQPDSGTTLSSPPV
Platelet-derived growth factor receptor beta, sequence (P09619 whole entry, the tested form may be a part): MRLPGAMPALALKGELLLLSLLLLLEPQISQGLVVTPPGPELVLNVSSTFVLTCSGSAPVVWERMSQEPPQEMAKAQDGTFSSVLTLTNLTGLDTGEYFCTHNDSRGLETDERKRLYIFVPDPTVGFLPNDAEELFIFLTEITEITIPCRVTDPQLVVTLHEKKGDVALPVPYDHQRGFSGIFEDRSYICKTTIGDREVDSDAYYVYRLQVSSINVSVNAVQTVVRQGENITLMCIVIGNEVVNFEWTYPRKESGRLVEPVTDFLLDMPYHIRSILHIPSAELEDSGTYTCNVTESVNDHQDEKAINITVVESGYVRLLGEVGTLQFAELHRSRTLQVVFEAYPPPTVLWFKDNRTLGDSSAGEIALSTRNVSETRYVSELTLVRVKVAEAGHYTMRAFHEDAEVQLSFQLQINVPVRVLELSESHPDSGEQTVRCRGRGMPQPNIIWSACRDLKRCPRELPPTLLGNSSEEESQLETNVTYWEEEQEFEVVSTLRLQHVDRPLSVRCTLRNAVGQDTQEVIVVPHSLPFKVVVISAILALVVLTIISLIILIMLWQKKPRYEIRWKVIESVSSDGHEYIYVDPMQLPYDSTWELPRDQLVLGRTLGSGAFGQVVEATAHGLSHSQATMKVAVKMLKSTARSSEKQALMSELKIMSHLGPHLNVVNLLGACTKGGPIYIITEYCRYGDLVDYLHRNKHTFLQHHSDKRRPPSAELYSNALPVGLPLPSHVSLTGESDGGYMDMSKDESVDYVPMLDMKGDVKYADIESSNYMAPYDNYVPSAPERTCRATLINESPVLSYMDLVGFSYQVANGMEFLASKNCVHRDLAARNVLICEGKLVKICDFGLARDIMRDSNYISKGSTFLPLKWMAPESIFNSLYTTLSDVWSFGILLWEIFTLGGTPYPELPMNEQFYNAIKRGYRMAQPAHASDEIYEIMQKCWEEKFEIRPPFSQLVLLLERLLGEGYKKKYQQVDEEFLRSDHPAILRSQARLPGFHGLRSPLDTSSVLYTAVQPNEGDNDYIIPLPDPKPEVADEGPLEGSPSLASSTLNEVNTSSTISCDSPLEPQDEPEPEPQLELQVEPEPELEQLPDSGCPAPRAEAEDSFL
Fibroblast growth factor receptor 1, sequence (P11362 whole entry, the tested form may be a part): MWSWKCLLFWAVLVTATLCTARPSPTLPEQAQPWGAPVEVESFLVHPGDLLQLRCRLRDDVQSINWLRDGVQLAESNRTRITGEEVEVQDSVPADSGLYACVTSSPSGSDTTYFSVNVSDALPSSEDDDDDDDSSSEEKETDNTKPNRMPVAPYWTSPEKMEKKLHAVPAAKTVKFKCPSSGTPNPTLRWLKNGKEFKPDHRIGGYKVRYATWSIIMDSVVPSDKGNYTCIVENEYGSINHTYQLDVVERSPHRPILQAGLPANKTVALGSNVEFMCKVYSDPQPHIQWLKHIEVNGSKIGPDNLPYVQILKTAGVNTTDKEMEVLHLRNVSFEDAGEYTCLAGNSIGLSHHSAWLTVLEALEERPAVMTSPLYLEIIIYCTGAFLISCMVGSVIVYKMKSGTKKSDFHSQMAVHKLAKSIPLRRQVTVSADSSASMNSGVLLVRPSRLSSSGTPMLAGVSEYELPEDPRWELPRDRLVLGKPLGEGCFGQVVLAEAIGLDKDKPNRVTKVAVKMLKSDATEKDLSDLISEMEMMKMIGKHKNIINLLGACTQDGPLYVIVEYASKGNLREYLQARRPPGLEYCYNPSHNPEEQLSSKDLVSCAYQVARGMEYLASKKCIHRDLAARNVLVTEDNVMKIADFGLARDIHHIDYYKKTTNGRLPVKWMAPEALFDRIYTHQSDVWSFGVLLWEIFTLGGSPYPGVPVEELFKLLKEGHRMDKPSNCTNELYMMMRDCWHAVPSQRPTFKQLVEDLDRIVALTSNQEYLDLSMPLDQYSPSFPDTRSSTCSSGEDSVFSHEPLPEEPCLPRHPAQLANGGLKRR
Mitogen-activated protein kinase kinase kinase 10, sequence (Q02779 whole entry): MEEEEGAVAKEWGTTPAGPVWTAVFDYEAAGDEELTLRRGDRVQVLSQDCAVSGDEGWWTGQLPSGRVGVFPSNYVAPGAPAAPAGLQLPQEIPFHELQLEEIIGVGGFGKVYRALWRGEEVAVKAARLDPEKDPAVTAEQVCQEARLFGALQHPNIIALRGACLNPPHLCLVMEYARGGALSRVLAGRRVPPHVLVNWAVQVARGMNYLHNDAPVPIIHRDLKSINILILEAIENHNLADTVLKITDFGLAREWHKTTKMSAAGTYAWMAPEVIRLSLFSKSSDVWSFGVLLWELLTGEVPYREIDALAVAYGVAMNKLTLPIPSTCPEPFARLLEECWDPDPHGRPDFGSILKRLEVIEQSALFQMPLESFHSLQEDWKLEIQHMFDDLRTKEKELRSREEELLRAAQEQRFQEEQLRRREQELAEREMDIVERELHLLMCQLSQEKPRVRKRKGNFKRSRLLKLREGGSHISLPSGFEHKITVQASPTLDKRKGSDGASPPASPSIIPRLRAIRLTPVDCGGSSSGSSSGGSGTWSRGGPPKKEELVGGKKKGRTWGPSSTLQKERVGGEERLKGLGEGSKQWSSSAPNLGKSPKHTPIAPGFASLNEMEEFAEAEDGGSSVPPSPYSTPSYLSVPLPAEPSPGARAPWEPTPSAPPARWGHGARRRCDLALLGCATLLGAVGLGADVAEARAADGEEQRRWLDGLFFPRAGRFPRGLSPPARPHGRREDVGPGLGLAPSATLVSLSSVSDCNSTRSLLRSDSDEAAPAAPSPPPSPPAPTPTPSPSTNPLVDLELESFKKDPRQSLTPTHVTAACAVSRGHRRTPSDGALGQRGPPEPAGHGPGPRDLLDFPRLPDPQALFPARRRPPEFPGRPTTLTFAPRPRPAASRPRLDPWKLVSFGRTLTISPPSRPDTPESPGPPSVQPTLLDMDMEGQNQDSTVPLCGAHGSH
Mitogen-activated protein kinase 1, sequence (P28482 whole entry, the tested form may be a part): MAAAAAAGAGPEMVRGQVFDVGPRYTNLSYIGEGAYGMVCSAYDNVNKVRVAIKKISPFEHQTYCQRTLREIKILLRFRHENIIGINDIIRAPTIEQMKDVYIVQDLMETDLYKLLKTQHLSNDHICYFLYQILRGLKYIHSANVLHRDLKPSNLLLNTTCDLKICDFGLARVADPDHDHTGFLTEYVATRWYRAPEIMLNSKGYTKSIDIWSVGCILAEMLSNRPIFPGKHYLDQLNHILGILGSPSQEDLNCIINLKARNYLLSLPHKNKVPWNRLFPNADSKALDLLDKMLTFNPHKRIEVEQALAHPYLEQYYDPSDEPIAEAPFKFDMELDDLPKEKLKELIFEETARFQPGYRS
Dual specificity protein kinase CLK1, sequence (P49759 whole entry, the tested form may be a part): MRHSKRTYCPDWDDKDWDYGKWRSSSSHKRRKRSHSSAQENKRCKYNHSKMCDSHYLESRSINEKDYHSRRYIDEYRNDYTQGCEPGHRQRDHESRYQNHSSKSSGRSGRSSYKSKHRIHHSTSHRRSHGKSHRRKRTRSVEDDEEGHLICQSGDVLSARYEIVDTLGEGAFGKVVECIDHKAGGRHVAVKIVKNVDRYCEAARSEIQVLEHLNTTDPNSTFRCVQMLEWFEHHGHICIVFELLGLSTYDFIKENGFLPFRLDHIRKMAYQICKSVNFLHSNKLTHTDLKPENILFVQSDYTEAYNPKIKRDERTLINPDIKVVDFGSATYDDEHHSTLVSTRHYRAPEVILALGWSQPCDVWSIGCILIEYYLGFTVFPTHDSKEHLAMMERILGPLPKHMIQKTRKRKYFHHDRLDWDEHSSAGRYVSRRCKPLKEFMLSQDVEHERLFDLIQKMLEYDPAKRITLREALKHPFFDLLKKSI

CN(CCc1ccc(-c2ccccc2)cc1)Cc1cn(C)c2ccc(C(=O)Nc3ccc(F)cc3)cc12
IC50 [1]: 13 µM
inhibition (INH) [2]: Not Active
IC50 [3]: 90 µM
IC50 [4]: 81 µM
IC50 [5]: 31 µM
IC50 [6]: 6.3 µM
Activity (IEC-6 [7]): Toxic
IC50 [8]: 48 µM
IC50 [9]: 61 µM
IC50 [10]: 18 µM
Activity (IEC-6 [11]): Toxic
IC50 [12]: 13 µM
Activity (IEC-6 [13]): Toxic
IC50 [14]: 79 µM
IC50 [15]: 24 µM
IC50 [16]: > 100 µM
IC50 [17]: 66 µM
Activity (HeLa [18]): Active
Activity (HeLa [19]): Active
Activity (IEC-6 [20]): Toxic
IC50 [21]: 21 µM
IC50 [22]: 16 µM
IC50 (SRSF protein kinase 1): 7.8 µM
Activity (IEC-6 [23]): Non-Toxic
